Test system: 156681-154-R-J1-PDC complex spheroid viability
Test: Anticancer human tumor 156681-154-R-J1-PDC patient-derived melanoma cell line growth inhibition [CLK]
Conditions: for IC50: curve of first compound; for viability, T/C: stronger effect = lower value
How it was run: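 Patient-derived tumor cells grown as complex spheroids with HUVEC endothelial cells and mesenchymal stem cells, treated with drug combinations. Concentrations descend in half-log steps from near clinical Cmax, or from 10 microM if Cmax unknown.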
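Further: spheroids exposed to the agents for seven days.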
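Wherever viability, T/C is given: 100% = DMSO vehicle control viability.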

IC50 (second compound 0.0316 µM): 452 nM | IC50 (second compound 0.1 µM): 399 nM | IC50 (second compound 0.316 µM): 49.4 nM | IC50 (second compound 1 µM): < 31.6 nM | IC50 (second compound 3.16 µM): < 31.6 nM | IC50 (second compound 10 µM): < 31.6 nM
SMILES: CC(Nc1ccc2c(c1)OCCn1cc(N3C(=O)OCC3C(F)F)nc1-2)C(N)=O (configuration not stated) + CNC(=O)c1ccc(Nc2nc(OC3CCCC3)c3c(-c4ccc5nc(C)oc5c4)c[nH]c3n2)c(OC)c1
viability, T/C (second compound 0.0316 µM, first compound 0.0316 µM): 76.8% | viability, T/C (second compound 0.0316 µM, first compound 0.1 µM): 61% | viability, T/C (second compound 0.0316 µM, first compound 0.316 µM): 44.5% | viability, T/C (second compound 0.0316 µM, first compound 1 µM): 53.9% | viability, T/C (second compound 0.0316 µM, first compound 3.16 µM): 33.1% | viability, T/C (second compound 0.0316 µM, first compound 10 µM): 23.1% | viability, T/C (second compound 0.1 µM, first compound 0.0316 µM): 49.9% | viability, T/C (second compound 0.1 µM, first compound 0.1 µM): 64.9% | viability, T/C (second compound 0.1 µM, first compound 0.316 µM): 47.7% | viability, T/C (second compound 0.1 µM, first compound 1 µM): 43% | viability, T/C (second compound 0.1 µM, first compound 3.16 µM): 26.4% | viability, T/C (second compound 0.1 µM, first compound 10 µM): 19.2% | viability, T/C (second compound 0.316 µM, first compound 0.0316 µM): 52.7% | viability, T/C (second compound 0.316 µM, first compound 0.1 µM): 47% | viability, T/C (second compound 0.316 µM, first compound 0.316 µM): 34.1% | viability, T/C (second compound 0.316 µM, first compound 1 µM): 27.9% | viability, T/C (second compound 0.316 µM, first compound 3.16 µM): 24.6% | viability, T/C (second compound 0.316 µM, first compound 10 µM): 15.8% | viability, T/C (second compound 1 µM, first compound 0.0316 µM): 47.5% | viability, T/C (second compound 1 µM, first compound 0.1 µM): 30% | viability, T/C (second compound 1 µM, first compound 0.316 µM): 28.1% | viability, T/C (second compound 1 µM, first compound 1 µM): 24.3% | viability, T/C (second compound 1 µM, first compound 3.16 µM): 19.3% | viability, T/C (second compound 1 µM, first compound 10 µM): 8.72% | viability, T/C (second compound 3.16 µM, first compound 0.0316 µM): 48.3% | viability, T/C (second compound 3.16 µM, first compound 0.1 µM): 36.1% | viability, T/C (second compound 3.16 µM, first compound 0.316 µM): 27.2% | viability, T/C (second compound 3.16 µM, first compound 1 µM): 18.9% | viability, T/C (second compound 3.16 µM, first compound 3.16 µM): 10.7% | viability, T/C (second compound 3.16 µM, first compound 10 µM): 8.42% | viability, T/C (second compound 10 µM, first compound 0.0316 µM): 33.4% | viability, T/C (second compound 10 µM, first compound 0.1 µM): 29.9% | viability, T/C (second compound 10 µM, first compound 0.316 µM): 18.1% | viability, T/C (second compound 10 µM, first compound 1 µM): 17.7% | viability, T/C (second compound 10 µM, first compound 3.16 µM): 13.9% | viability, T/C (second compound 10 µM, first compound 10 µM): 7.86%
